{"source": "patent US20180092393A1", "about": "“IRON NICOTINATE COMPOSITION” (NESTEC S.A., priority 2015, published 2018)", "details": "colour difference vs product with no iron salts; approximately 2.1 mg iron per 100 g; flash pasteurized at 3.05° C. for 2 minutes; 47.3% banana puree", "experimental": "Colour measurements were performed in 1×1 cm polystyrene cuvettes using an X-Rite ColorEye 7000A colorimeter. The colorimeter was set up with a D65 light source, 3.0 degree observer angle and with specular component included. The colour difference between the product with no iron salts and the iron fortified product was measured for each iron salt and expressed as ΔEab* using the CIELAB colour scale.", "data": [{"smiles": "O=S(=O)([O-])[O-].[Fe+2]", "note": "[Ferrous sulphate]", "values": [{"measurement": "ΔEab*", "result": 3.26}]}]}
